Experimental data as given in US6541468B1, “Indolocarbazole derivatives useful for the treatment of neurodegenerative diseases and cancer” (Bayer Corporation, priority 1998, dated 2003).
Read-outs that look alike come from different tables or passages of the source.

How the values were obtained:
cdc2 kinase = target: T1, cdc2 kinase (Homo sapiens, UniProt P06493); assay: cdc2 kinase inhibition assay; format: biochemical; conditions: 0.25 mM ATP, human recombinant tau substrate
T1 construct: Human cdc2 kinase was prepared from nocodazole-arrested HeLa cells; endogenous in cells; host or cells: nocodazole-arrested HeLa cells
T1 sequence (P06493 whole entry): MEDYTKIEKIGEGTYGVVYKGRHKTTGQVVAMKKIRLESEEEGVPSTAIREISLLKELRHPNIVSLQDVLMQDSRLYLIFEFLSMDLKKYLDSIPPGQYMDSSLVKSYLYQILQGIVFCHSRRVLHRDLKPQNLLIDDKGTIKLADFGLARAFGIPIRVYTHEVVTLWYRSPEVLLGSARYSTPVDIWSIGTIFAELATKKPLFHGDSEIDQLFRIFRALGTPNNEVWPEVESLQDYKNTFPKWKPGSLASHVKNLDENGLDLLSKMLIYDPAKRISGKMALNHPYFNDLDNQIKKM
T1 sequence (P14635 whole entry partner): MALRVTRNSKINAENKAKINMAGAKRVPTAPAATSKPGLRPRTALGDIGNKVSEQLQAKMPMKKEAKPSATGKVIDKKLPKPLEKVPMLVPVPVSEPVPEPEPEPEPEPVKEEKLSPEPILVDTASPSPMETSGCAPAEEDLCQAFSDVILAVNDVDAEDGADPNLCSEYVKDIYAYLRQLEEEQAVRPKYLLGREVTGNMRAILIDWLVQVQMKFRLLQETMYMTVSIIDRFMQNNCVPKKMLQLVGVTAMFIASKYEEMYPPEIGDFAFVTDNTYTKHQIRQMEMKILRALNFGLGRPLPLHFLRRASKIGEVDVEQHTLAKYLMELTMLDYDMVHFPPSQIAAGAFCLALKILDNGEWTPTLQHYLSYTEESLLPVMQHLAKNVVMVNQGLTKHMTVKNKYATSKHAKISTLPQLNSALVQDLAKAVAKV
Description: Preparation of cdc2 Kinase: Human cdc2 kinase was prepared from nocodazole-arrested HeLa cells according to Marshak D. M. er al., J. Cell Biochem., 45, 391-400 (1991).
cdc2 kinase was assayed in 50 μl 25 mM HEPES, pH 7.0, 1 mM Mg^2+, 0.25 mM ATP (150-300 cpm/pmole), 1 mM DTT, using 0.5 ng cdc2 kinase, 5 μg human recombinant tau as substrate, and 0.1 mg/mL BSA a as carrier.
(§1) Enzyme, substrate and inhibitor were preincubated for 5-10 min at 4° C. in assay buffers containing a final concentration of 2% DMSO before initiating the reaction with 0.25 mM γ^2P-ATP. Samples were incubated for 30 min at 37° C. and reactions were terminated with 10% trichloracetic acid/2% sodium pyrophosphate (TCA/PPA), followed by filtration over a glass fiber filtermat (type A) with a cell harvester (Tomtec). The filtermats were washed twice for several hours with TCA/PPA until all background radioactivity was removed. Precipitable counts were quantitated directly on the filtermat with a microbeta scintillation counter system (Wallac-Pharmacia). Inhibitor data were subjected to curve fitting and IC50 values were calculated from these curves using the GraphIt program.

PKA = target: T2, PKA (Bos taurus, UniProt P00517); assay: PKA catalytic subunit inhibition assay; format: biochemical, bovine; conditions: footnote a) on the CII value: partial inhibition only
T2 construct: The catalytic subunit of bovine heart PKA was obtained commercially from Sigma; purchased Sigma; host or cells: bovine heart
Description: Preparation of cAMP-dependent Kinase: The catalytic subunit of bovine heart PKA was obtained commercially from Sigma.
The catalytic subunit of PKA was assayed in 50 μl 25 mM HEPES, pH 7.0, 10 mM MgCl2, 1 mM EDTA, 1 mM DTT, using 70 ng PKA and 0.1 mg/mL human recombinant tau protein as a substrate.
as §1

ERK2 activation = assay: Okadaic acid induced ERK2 phosphorylation/activation in SY5Y cells; format: cell-based, human; conditions: 1 μM okadaic acid; for IC50: Homo sapiens
Description: SKNSH-SY 5Y cells were plated on fibronectin-coated 6 well (30 mm^2) culture dishes (Biocoat®, Collaborative Biomedical Products, Inc.) and grown to confluence in 5 mL of 50% D-MEM/50% F-12 Nutrient Mixture (Ham) supplemented with 15% heat-inactivated bovine serum (JRH Bioscience), 0.1 mM non-essential amino acids solution, 2 mM glutamine and pen/strep/fungizone (GibcoBRL Life Technologies, Inc.). Cell culture medium was changed every 48 hours.
For drug testing, cells were routinely pretreated with inhibitors in 1 mL (30 mm2) for 60 min at concentrations of 30 nM, 100 nM, 300 nM, […]. Compound stocks were all at 10 mM in DMSO and dilutions were made in DMSO. Cells were then treated with 1 μM okadaic acid (ammonium salt; LC Laboratories, dissolved at 1 mM in DMSO) for 90 min. All experiments, including controls, contained a final concentration of between 0.5 and 1% DMSO.
Cells were detached from 30 mm^2 plates and suspended into 1 mL of ice-cold PBS by gentle trituration, transferred into microcentrifuge tubes and sedimented for 12 seconds at 14,000×g. […] Cell debris was removed by centrifugation at 14,000×g for 5 minutes at 4° C. and cell supernatants were analyzed by anti-ERK2 and anti-tau Western-blotting as described below.
[…] of total cell lysate was run on a 10% tris-glycine polyacrylamide gels (Novex, 1.5 mm×10 well) at 100 volts for 2.5 hors and Western-blotted on nitrocellulose (Novex) overnight at 23 volts or 1.5 hrs at 100V in transfer buffer [Towbin et al. Proc. Natl. Acad. Sci. USA 76, 4350-4354 (1979]) at 4° C. Blots were analyzed for ERK2 and phosphotyrosine immunoreactivity with anti-ERK1+2 (Z033; Zymed Laboratories, Inc.; 1:5,000) and anti-phosphotyrosine (4G10; Upstate Biotechnology Inc.; 1:1,000) mAbs. Blots were also analyzed for phosphorylation-sensitive Tau immuno-reactivity with mAb Tau-1 (Boehringer Mannheim; 1:5,000) and phosphorylation dependent mAb AT8 against FHF-tau (Biosource International; 1:200). Total Tau populations were detected by Tau-1 immunoblotting after treating blots for 16 hrs at 37° C. with 100 units/mL alkaline phosphatase (Gibco BRL) in 5 mL of 50 mM Tris-HCI (pH 8.5), 0.1 mM EDTA. All blots were developed using ECL (enhanced chemiluminescence) Western blotting protocol (Amersham Life Science) with horseradish peroxidase-linked sheep anti-mouse secondary antibody and analyzed on Kodak X-OMAT AR scientific imaging film. […] Changes in tau phosphorylation were assessed by normalizing densitometrically determined mAb Tau-1 immunoreactivities in cell extracts to Tau-1 reaction after dephosphorylation on the blot. […]

[1] = SY5Y, means of triplicate determinations, read-out: Inhibition in SY5Y cells of ERK2 activation IC50

| Structure (SMILES) | IC50 (cdc2 kinase) | IC50 (PKA) | IC50 (ERK2 activation; [1]) | IC50 (ERK2 activation; SY5Y cells, read-out: IC50 for prevention of okadaic acid induced ERK2 phosphorylation/activation (FIG. 4)) | Concentration at which prevention of ERK2 phosphorylation/activation is complete (ERK2 activation; SY5Y cells) |
| --- | --- | --- | --- | --- | --- |
| COC(=O)[C@@]1(O)C[C@H]2C[C@@H]1n1c3ccccc3c3c4c(c5c6ccccc6n2c5c31)C(=O)NC4=O (relative stereo) [CIII, 9,12-Methano-1H-diindolo[1,2,3-fg:3′,2′,1′-kl]pyrrolo[3,4-I][1,6] benzodiazocine-10-carboxylic acid, 2,3,9,10,11,12-hexahydro-10-hydroxy-1,3-dioxomethyl ester, (9α,10β,12α)] | 3800 nM | > 100000 nM | 5700 nM | ~1000 nM | 10 µM |
| CNC(=O)[C@]1(O)CC2CC1n1c3ccccc3c3c4c(c5c6ccccc6n2c5c31)C(=O)NC4=O (stereo partly drawn) [CII, 9,12-Methano-1H-diindolo[1,2,3-fg:3′,2′,1′-kl]pyrrolo[3,4-I][1,6] benzodiazocine-10-carboxamide, 2,3,9,10,11,12-hexahydro-10-hydroxy-N-methyl-1,3-dioxo-(9α,10β,12α)] | 44 nM | 650 nM | 570 nM |  |  |
